Measurements as given in patent publication US20140024041A1, “SOFT SUBSTRATE FOR CELL CULTURE AND PROCESS FOR PREPARING THE SAME” (COMMISSARIAT A L'ENERGIE ATOMIQUE ET AUX ENERGIES …, priority 2011, published 2014).

Columns and labels:
[1] = system: MCF10A expressing inducible ErbB2 receptor; assay: Cell traction force measurement from crossbow micropattern shortening, ErbB2 inducible cells; format: cell-based, human; conditions: ErbB2 receptors activated with ligand, 1 μM, 48 hr before measurement, FIG. 5C
Description: When actin cables have an unpredictable spatial distribution, a given deformation cannot be directly assigned to a defined force magnitude. Indeed, forces applied on adjacent adhesion sites both affect local deformations, due to the continuous nature of the substrate. Each deformation results from local and distant forces. So the calculation of the force field is highly dependent on the spatial distribution of force application sites and the relationship between deformation and forces varies from one cell to the other. The inventors hypothesized that in cells developing a reproducible architecture and a controlled pattern of force application, a given local deformation could be assigned to a defined value of the contractile force. […] When the deformation was measured along the shortest, and therefore most contracted, cell axis, the correlation was improved (FIG. 4C). […] On the crossbow, a single image acquisition was sufficient to measure the bar length and read the corresponding average cell traction force using the calibration curve (FIG. 5F). […]
The culture of MCF10A cells and the generation of ΔCK2β cell line were described previously (Deshiere et al (2008) Mol Cell Biochem 316(1-2):107-113). […] Substrate relaxation was assessed by detaching cells with trypsin. […]

MCF10A cells = assay: Cell traction force measurement from crossbow micropattern bar shortening on PAA; format: cell-based, human
Protocol: Non-tumorigenic human epithelial cells from the mammary gland, MCF10A, were plated on the micropatterned PAA substrates. Cells specifically attached to the fibronectin coated micropatterns since non-exposed PAA regions prevented protein adsorption (FIG. 2D). The effect of micropattern geometry on cell traction forces orientation was tested on various shapes: disc, pacman and crossbow (FIG. 3A). Spread cells exerted traction forces on the micropattern that could be measured by looking at the displacement of fluorescent beads embedded in the PAA gel (see FIG. 3B and Material and Methods). Particle Image Velocimetry followed by individual particle tracking were used to measure bead displacements ((Marganski et al (2003) Methods Enzymol 361:197-211; Sabass et al (2008) Biophys J 94(1):207-220). Force fields were calculated from the bead displacement fields by using the Fourier transform traction cytometry ((Sabass et al, supra; Butler et al (2002) Am J Physiol Cell Physiol 282(3):C595-605). Force fields exerted by individual cells were overlaid and averaged to quantify their reproducibility (FIG. 3C, D). On homogeneously coated regions cells developed forces that were randomly distributed from one cell to the other. In cells constrained on disc shaped micropatterns, forces were still randomly oriented but their magnitudes were lowered due to reduced cell spreading. In cells constrained on pacman shaped micropatterns, forces distribution was geometrically biased due to enhanced cell contraction above non adhesive regions. […] Importantly, most of the traction forces were reproducibly oriented upward, along the straight adhesive bar on the extremity of which the inventors measured the highest pressure (FIG. 3D). […]
When actin cables have an unpredictable spatial distribution, a given deformation cannot be directly assigned to a defined force magnitude. […] When the deformation was measured along the shortest, and therefore most contracted, cell axis, the correlation was improved (FIG. 4C). […]

Compound: CCC(C)(C)C(=O)C(=O)N1CCCC[C@H]1C(=O)O[C@H](CCc1ccc(OC)c(OC)c1)c1cccc(OCC(=O)NCCNC(=O)COc2cccc([C@@H](CCc3ccc(OC)c(OC)c3)OC(=O)[C@@H]3CCCCN3C(=O)C(=O)C(C)(C)CC)c2)c1 [AP 1510]
- level of cell contraction vs WT cells [1]: no significant changes

Compound: Cc1ccc2c(c1)C(=O)C1(O)CCN(c3ccccc3)C1=N2 (stereo not shown) [Blebbistatin]
- force magnitude decrease over time (MCF10A cells; 50 μM, single cell, FIG. 5B): follows a single exponential decay
- force inhibition profile in response to increasing dose (MCF10A cells; increasing dose, crossbow bar length, FIG. 5A): matched the myosin II inhibition profile

Compound: TGFb1: known to induce epithelial to mesenchymal transition; from R&D systems
- level of cell contraction vs WT cells (crossbow shortening) (MCF10A cells; 2 ng/mL for 2 days before plating, FIG. 5C): significantly higher level of cell contraction
